Measured values taken from patent US5356935A, “Reduced phenanthrenes” (Eli Lilly and Company, priority 1993, dated 1994).

Legend:
Type I 5α-reductase = target: T1, Type I 5α-reductase (Homo sapiens, UniProt P18405); experiment: Human Type I steroid 5α-reductase assay (human scalp enzyme, [3H]-testosterone conversion); type: biochemical; details: compared to control reaction mixtures, read-out: percent inhibition of Type I 5AR; for inhibition at 0.01 µM: compound concentration .01 μM; for inhibition at 0.03 µM: compound concentration .03 μM; for inhibition at 0.1 µM: compound concentration .1 μM
T1 construct: Scalp punch biopsies from graft recipient sites were obtained from human hair transplant procedures; from tissue; host or cells: human scalp punch biopsies (pooled, 60-75 punches from one surgical procedure), 100,000×g pellet of homogenate
T1 sequence (P18405 1-259): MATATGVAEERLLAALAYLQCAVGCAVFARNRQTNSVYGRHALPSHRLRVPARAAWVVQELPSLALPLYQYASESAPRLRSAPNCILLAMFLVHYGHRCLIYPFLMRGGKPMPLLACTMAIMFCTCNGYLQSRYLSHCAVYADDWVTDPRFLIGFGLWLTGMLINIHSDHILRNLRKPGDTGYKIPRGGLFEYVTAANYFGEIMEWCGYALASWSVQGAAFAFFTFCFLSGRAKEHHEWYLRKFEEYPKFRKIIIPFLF
Method: Scalp punch biopsies from graft recipient sites were obtained from human hair transplant procedures immediately after surgery and were frozen on dry ice and stored at -80° C. Approximately 60-75 punches from one surgical procedure were used to generate an enzyme preparation. The subcutaneous tissue was cut away and discarded. The skin was frozen with liquid nitrogen and pulverized to powder. The powder was homogenized in 30 ml of ice-cold buffer (20 mM Tris-HCl, pH 7.5) using a Brinkmann Polytron (Westbury, N.Y.) with a PTA 10-S robe and a setting of 7. The homogenization procedure consisted of four 15 second pulses. Connective tissue was cleared from the probe with forceps between pulses. The homogenate was then filtered through cheese cloth and the filtrate centrifuged at 100,000×g for one hour in a Beckman L8-60M ultracentrifuge. The pellet was resuspended by homogenization with a Dounce homogenizer using the same buffer solution. An aliquot was taken for protein determination by the Lowry method, Lowry, et al., Protein Measurement with the Folin Phenol Reagent, J. Biol. Chem., 193,265-75 (1951). Aliquots of the enzyme preparation were stored at -80° until use.
(§1) This enzyme assay is based on the conversion of [^3 H]-testosterone to [^3 H]-5α-dihydrotestosterone (DHT) and other 5α-reduced metabolites. While about 90% of the 5α-reduced metabolites formed in these assays was DHT, androstanedione was formed at about 10%. Essentially no androsterone was detected. In a total volume of 1.0 ml, the assay contained 2.6 μCi [^3 H]-testosterone (50 nM), 500 μM of reduced nicotine adeninc dinucleotide phosphate, 100 mM Tris-HCl, pH 7.5, (in Type II assays, 40 mM sodium acetate at pH 5.5 is used instead of Tris-HCl) and test compounds as indicated. Test compounds were added in 20 μl of dimethylsulfoxide (20 μl of dimethylsulfoxide was added to blanks and controls). The reaction was initiated by the addition of 0.5 mg of Type I or Type II 5α-reductase. The reaction mixture was incubated for 30 min at 25° and terminated by the addition of 1 ml ice-cold stopping solution. The stopping solution contained 40 μM each of non-radioactivetestosterone, DHT, androstenedione, androstanedione, androsterone, androstan-3β,17β-diol, and androstan-3α,17β-diol.
(§2) The samples were prepared for high performance liquid chromatography by solid phase extraction. Disposable solid matrix extraction columns (C-18 reversed;phase, 6 ml, 500 mg; Bond Elut™ from Analytichem International; Harbor City, Calif.) were conditioned by washing with 5 ml of methanol followed by 5 ml of deionized water. The reaction mixtures were then applied to the columns. The columns were subsequently washed with 5 ml of acetone:water (1:4), followed by 0.3 ml of methanol. The samples were then eluted with 3 ml of methanol and collected in 20 ml scintillation vials. Three ml of water was then added to each scintillation vial. The solutions were then transferred to tubes and centrifuged for 30 min at 1000×g to remove any particulate material before chromatography.
(§3) The [^3 H]-testosterone substrate and its metabolites were separated by chromatography using a C-18 reversed phase column (Beckman Ultrasphere 5 μm spherical 80A pore, part no. 235329, 4.6 mm i.d.×[…]) with an isocratic mobile phase (46 water: 46 methanol: 8 tetrahydrofuran by volume). The column temperature was maintained at 35° and the flow rate was 1.5 ml/min. A 400 μl aliquot was injected onto the column and radioactivity was determined using a Beckman 171 in-line flow radioisotope detector in conjunction with Rainin Dynamax™ software and a Macintosh computer. The flow rate of the Atomflow™ scintillation fluid was 4.5 ml / min.

Type II 5α-reductase = target: T2, Type II 5α-reductase (Homo sapiens, UniProt P31213); experiment: Human Type II steroid 5α-reductase assay (human prostate enzyme, [3H]-testosterone conversion); type: biochemical; details: compared to control reaction mixtures, read-out: percent inhibition of Type II 5AR; for inhibition at 1 µM: compound concentration 1 μM; for inhibition at 3 µM: compound concentration 3 μM; for inhibition at 10 µM: compound concentration 10 μM; for inhibition at 0.3 µM: compound concentration .3 μM
T2 construct: from tissue; host or cells: human prostate tissue from surgery, 100,000×g pellet of homogenate
T2 sequence (P31213 1-254): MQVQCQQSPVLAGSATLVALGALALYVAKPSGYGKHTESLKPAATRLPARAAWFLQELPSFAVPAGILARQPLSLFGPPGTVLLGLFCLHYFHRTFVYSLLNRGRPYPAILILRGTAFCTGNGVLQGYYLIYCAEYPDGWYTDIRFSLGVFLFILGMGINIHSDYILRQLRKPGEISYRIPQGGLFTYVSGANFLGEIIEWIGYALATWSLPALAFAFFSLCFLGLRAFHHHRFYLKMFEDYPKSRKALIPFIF
Method: The same procedure as above was used for preparations using tissue from prostate surgery with the following changes: The buffer used was 20 mM sodium phosphate, pH 6.5; and the pellet was resuspended in the sodium phosphate buffer containing 20% glycerol.
as §1, §2, §3

inhibition at 0.01 µM (Type I 5α-reductase) [%]	inhibition at 0.03 µM (Type I 5α-reductase) [%]	inhibition at 0.1 µM (Type I 5α-reductase) [%]	inhibition at 1 µM (Type II 5α-reductase) [%]	inhibition at 3 µM (Type II 5α-reductase) [%]	inhibition at 10 µM (Type II 5α-reductase) [%]	inhibition at 0.3 µM (Type II 5α-reductase) [%]	SMILES
0	35	42	55	49	63	47	C[C@]12CCC(=O)C(N)=C1CCc1cc(Cl)ccc12 [Example 1, (R)-1-amino-7-chloro-4,4a,9,10-tetrahydro-4a-methyl-2(3H)-phenanthreneone]
0	3	26	16	33	36	7	C[C@]12CCC(=O)C(N)=C1C=Cc1cc(Cl)ccc12 [Example 2, (R)-1-amino-7-chloro-4,4a-dihydro-4a-methyl-2(3H)-phenanthreneone]
